Assay results as given in PMC2747480 (Journal of medicinal chemistry, 2009).
“Also recorded” adds a separate entry of the source. One block for each compound: values may come before it.

Assays:
[1] = tested on: Bax/Bak double knockout MEF cells (DKO/MEFs); experiment: Bax/Bak double knockout MEF cytotoxicity, FITC-Annexin V/PI assay; format: cell-based, mouse; details: 10 μM, result in words
[2] = chemical stability as solid powder at room temperature; format: physicochemical; details: in air, no ascorbic acid
[3] = in vitro plasma stability
[4] = in vitro microsomal stability; details: rat microsomes
[5] = result in words; cited from earlier work
GST–Bcl-XL ΔTM protein = GST–Bcl-XL ΔTM protein (Homo sapiens, UniProt Q07817); experiment: competitive fluorescence polarization assay; format: binding; details: relative to compound 2
Sequence of GST–Bcl-XL ΔTM protein (Q07817 1-209 limits assumed, stated change not applied): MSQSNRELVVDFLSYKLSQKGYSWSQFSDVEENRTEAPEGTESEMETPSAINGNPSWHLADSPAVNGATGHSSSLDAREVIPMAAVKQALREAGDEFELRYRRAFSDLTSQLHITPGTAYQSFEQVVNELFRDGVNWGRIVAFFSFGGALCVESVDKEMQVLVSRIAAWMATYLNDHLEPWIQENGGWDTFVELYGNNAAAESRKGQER

GST-Bcl-2 = GST-Bcl-2 (Homo sapiens, UniProt P10415); experiment: competitive fluorescence polarization assay; format: binding; details: relative to compound 2
Sequence of GST-Bcl-2 (P10415 whole entry): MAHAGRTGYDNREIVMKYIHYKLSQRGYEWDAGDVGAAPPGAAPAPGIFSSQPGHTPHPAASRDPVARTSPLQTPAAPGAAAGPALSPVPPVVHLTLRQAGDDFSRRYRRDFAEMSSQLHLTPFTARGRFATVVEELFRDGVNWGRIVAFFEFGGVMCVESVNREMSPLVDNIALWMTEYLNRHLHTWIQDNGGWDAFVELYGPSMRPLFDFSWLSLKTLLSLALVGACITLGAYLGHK

GST-Mcl-1 = GST-Mcl-1 (Homo sapiens, UniProt Q07820); experiment: competitive fluorescence polarization assay; format: binding; details: relative to compound 2
Sequence of GST-Mcl-1 (Q07820 whole entry): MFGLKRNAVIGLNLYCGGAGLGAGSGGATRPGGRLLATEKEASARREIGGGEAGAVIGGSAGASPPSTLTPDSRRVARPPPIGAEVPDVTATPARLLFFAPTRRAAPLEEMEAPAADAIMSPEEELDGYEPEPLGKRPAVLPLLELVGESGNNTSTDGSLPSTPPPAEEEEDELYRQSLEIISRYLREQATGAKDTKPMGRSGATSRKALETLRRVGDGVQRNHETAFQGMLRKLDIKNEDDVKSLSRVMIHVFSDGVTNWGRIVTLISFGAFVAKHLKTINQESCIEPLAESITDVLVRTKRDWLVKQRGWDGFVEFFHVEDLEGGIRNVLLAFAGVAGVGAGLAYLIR

Bfl-1 = biological target: T1, Bfl-1 (Homo sapiens, UniProt Q16548); experiment: competitive fluorescence polarization assay; format: binding; details: relative to compound 2
T1 sequence (Q16548 1-175): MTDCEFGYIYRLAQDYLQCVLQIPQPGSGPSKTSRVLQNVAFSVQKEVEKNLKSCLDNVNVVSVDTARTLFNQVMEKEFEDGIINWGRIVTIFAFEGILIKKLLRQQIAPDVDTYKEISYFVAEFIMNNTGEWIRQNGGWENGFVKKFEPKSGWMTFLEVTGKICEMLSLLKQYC

Bcl-XL = Bcl-XL (Homo sapiens, UniProt Q07817); experiment: Isothermal Titration Calorimetry; format: binding; details: relative to compound 2
Sequence of Bcl-XL (Q07817 whole entry): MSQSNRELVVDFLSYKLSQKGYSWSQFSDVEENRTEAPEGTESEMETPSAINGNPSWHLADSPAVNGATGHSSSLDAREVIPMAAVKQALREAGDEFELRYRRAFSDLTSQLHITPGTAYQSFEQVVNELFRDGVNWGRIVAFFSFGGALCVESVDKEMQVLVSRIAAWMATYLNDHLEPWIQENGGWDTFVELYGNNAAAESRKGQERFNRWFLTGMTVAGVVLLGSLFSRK

[6] = single dose of 100, 75, 50 and 25 mg/kg ip, 14 days, result in words
Bcl-2 transgenic mice = experiment: spleen weight reduction in Bcl-2 transgenic mice; format: in vivo, mouse; details: single ip injection, 72 μmol/kg, result in words
RS11846 cells = experiment: RS11846 apoptosis, Annexin V-FITC and propidium iodide assay; details: result in words
BP3 cells = experiment: BP3 cells, Annexin V-FITC and propidium iodide assay; details: result in words

Compound: Cc1cc2c(C(C)C)c(O)c(O)c(C=O)c2c(O)c1-c1c(C)cc2c(C(C)C)c(O)c(O)c(C=O)c2c1O [Compound 1, 1,1′,6,6′,7,7′-Hexahydroxy-5,5′-diisopropyl-3,3′-dimethyl-2,2′-binaphthyl-8,8′-dicarboxaldehyde, reference compound]
- killing of DKO/MEFs (bax−/−bak−/− cells) [1]: equally effective in killing both wt MEFs and MEF/DKOs

Compound: Cc1cc2c(C(C)C)c(O)c(O)cc2c(O)c1-c1c(C)cc2c(C(C)C)c(O)c(O)cc2c1O [Compound 2, 5,5′-Diisopropyl-1,1′,6,6′,7,7′-hexahydroxy-3,3′-dimethyl-2,2′-binaphthalene, reference compound]
- killing of DKO/MEFs (bax−/−bak−/− cells) [1]: reduced cytotoxicity against MEF/DKOs
- degraded after 60 days at room temperature [2]: ~80%
- degraded after 1 h incubation in rat plasma [3]: 47%
- degraded after 1 h incubation in rat microsomal preparations [4]: 36%

Compound: Cc1cc2c(C(=O)Cc3ccccc3)c(O)c(O)cc2c(O)c1-c1c(C)cc2c(C(=O)Cc3ccccc3)c(O)c(O)cc2c1O [Compound 3]
- GI toxicity in mice [5]: mild GI toxicity

Compound: Cc1cc2c(C(=O)NC(C)c3ccc(Cl)cc3)c(O)c(O)cc2c(O)c1-c1c(C)cc2c(C(=O)NC(C)c3ccc(Cl)cc3)c(O)c(O)cc2c1O (stereo not shown) [Compound 8k, N^5,N^5′-Bis(1-(4-chlorophenyl)ethyl)-1,1′,6,6′,7,7′-hexahydroxy-3,3′-dimethyl-2,2′-binaphthyl-5,5′-dicarboxamide]
- killing of DKO/MEFs (bax−/−bak−/− cells) [1]: ineffective

- degraded after 1 h incubation in rat plasma [3]: 11%
- degraded after 1 h incubation in rat microsomal preparations [4]: 10%
Compound: Cc1cc2c(C(=O)NCC3CCCCC3)c(O)c(O)cc2c(O)c1-c1c(C)cc2c(C(=O)NCC3CCCCC3)c(O)c(O)cc2c1O [Compound 8m, N^5,N^5′-Bis(cyclohexylmethyl)-1,1′,6,6′,7,7′-hexahydroxy-3,3′-dimethyl-2,2′-binaphthyl-5,5′-dicarboxamide]
- killing of DKO/MEFs (bax−/−bak−/− cells) [1]: ineffective

Compound: Cc1cc2c(C(=O)NCCc3cccc(Cl)c3)c(O)c(O)cc2c(O)c1-c1c(C)cc2c(C(=O)NCCc3cccc(Cl)c3)c(O)c(O)cc2c1O [Compound 8p, N^5,N^5′-Bis(3-chlorophenethyl)-1,1′,6,6′,7,7′-hexahydroxy-3,3′-dimethyl-2,2′-binaphthyl-5,5′-dicarboxamide]
- killing of DKO/MEFs (bax−/−bak−/− cells) [1]: ineffective

- degraded after 60 days at room temperature [2]: 10%
Compound: CCc1ccc(CCNC(=O)c2c(O)c(O)cc3c(O)c(-c4c(C)cc5c(C(=O)NCCc6ccc(CC)cc6)c(O)c(O)cc5c4O)c(C)cc23)cc1 [Compound 8q, N^5,N^5′-Bis(4-ethylphenethyl)-1,1′,6,6′,7,7′-hexahydroxy-3,3′-dimethyl-2,2′-binaphthyl-5,5′-dicarboxamide]
- killing of DKO/MEFs (bax−/−bak−/− cells) [1]: ineffective

Compound: Cc1cc2c(C(=O)NCC(C)c3ccccc3)c(O)c(O)cc2c(O)c1-c1c(C)cc2c(C(=O)NCC(C)c3ccccc3)c(O)c(O)cc2c1O (stereo not shown) [Compound 8r, 1,1′,6,6′,7,7′-Hexahydroxy-3,3′-dimethyl-N^5,N^5′-bis(2-phenylpropyl)-2,2′-binaphthyl-5,5′-dicarboxamide]
- times more effective than 2, FP displacement Bcl-XL (GST–Bcl-XL ΔTM protein): 5 times
- times higher potency than compound 2, FP Bcl-2 (GST-Bcl-2): approximately 10 times
- times higher potency than compound 2, FP Mcl-1 (GST-Mcl-1): approximately 10 times
- times higher potency than compound 2, FP Bfl-1 (Bfl-1): approximately 10 times
- times more potent than compound 2, ITC Bcl-XL (Bcl-XL): 15 times
- killing of DKO/MEFs (bax−/−bak−/− cells) [1]: ineffective; also recorded: little cytotoxicity
- degraded after 60 days at room temperature [2]: 10%
- mortality [6]: All mice were alive after 14 days
- degraded after 1 h incubation in rat plasma [3]: 4%
- degraded after 1 h incubation in rat microsomal preparations [4]: 24%

Compound: Cc1cc2c(CC3CCCC3)c(O)c(O)cc2c(O)c1-c1c(C)cc2c(CC3CCCC3)c(O)c(O)cc2c1O [Compound 12c, 5,5′-Bis(cyclopentylmethyl)-3,3′-dimethyl-2,2′-binaphthyl-1,1′,6,6′,7,7′-hexaol]
- in vivo activity in Bcl-2 transgenic mice (Bcl-2 transgenic mice): lower in vivo activity

Compound: Cc1cc2c(CCc3ccccc3)c(O)c(O)cc2c(O)c1-c1c(C)cc2c(CCc3ccccc3)c(O)c(O)cc2c1O [Compound 12e, 3,3′-Dimethyl-5,5′-diphenethyl-2,2′-binaphthyl-1,1′,6,6′,7,7′-hexaol]
- in vivo activity in Bcl-2 transgenic mice (Bcl-2 transgenic mice): lower in vivo activity

Compound: Cc1cc2cc(O)c(O)cc2c(O)c1-c1c(C)cc2cc(O)c(O)cc2c1O [Compound 13, 3,3′-Dimethyl-2,2′-binaphthyl-1,1′,6,6′,7,7′-hexaol]
- induction of apoptosis of the RS11846 cell line (RS11846 cells): little or no apoptosis

Compound: Cc1cc2c(C(=O)O)c(O)c(O)cc2c(O)c1-c1c(C)cc2c(C(=O)O)c(O)c(O)cc2c1O [Compound 14, 1,1′,6,6′,7,7′-Hexahydroxy-3,3′-dimethyl-2,2′-binaphthyl-5,5′-dicarboxylic acid]
- induction of apoptosis of the RS11846 cell line (RS11846 cells): little or no apoptosis

Compound: CN(C)CC[C@H](CSc1ccccc1)Nc1ccc(S(=O)(=O)NC(=O)c2ccc(N3CCN(Cc4ccccc4-c4ccc(Cl)cc4)CC3)cc2)cc1[N+](=O)[O-] [Compound 15]
- cytotoxic activity against BP3 cell lines (BP3 cells): no cytotoxic activity
